How the values were obtained:
[1] = test system: glucose production in isolated rat hepatocytes; experiment: Inhibition of glucose production in rat hepatocytes (Example I); format: cell-based; conditions: for IC50: lactate/pyruvate as substrates, 1 hour
Experimental: Methods: Isolated rat hepatocytes were prepared from fasted Sprague Dawley rats (250-300 g) as described in Example G. Hepatocytes (75 mg wet weight/ml) were incubated in 1 ml Krebs bicarbonate buffer containing 10 mM glucose, and 1 mg/ml BSA. Incubations were carried out in a 95% oxygen, 5% carbon dioxide atmosphere in closed, 50-ml Falcon tubes submerged in a rapidly shaking water bath (37° C.). After 10 minutes of equilibration, lactate and pyruvate were added to 10 mM and 1 mM concentrations, respectively. Addition of these gluconeogenic substrates was immediately followed by the addition of test compound to concentrations ranging from 1-100 μM. After 1 hour, an aliquot (0.25 ml) was removed, and transferred to an Eppendorf tube and centrifuged. The resulting supernatant (50 μl) was then assayed for glucose content using a Glucose Oxidase kit (Sigma Chemical Co.) as per the manufacturer's instructions.

[2] = test system: mouse; experiment: Byproduct toxicity testing in vivo (Example N)
Experimental: Plasma samples are subjected to a standard chemistry panel in which markers of liver function are evaluated.

[3] = Chemical stability in potassium phosphate buffers (Example A); format: physicochemical; conditions: pH 7.0 potassium phosphate buffer, room temperature, 12-hour incubation
Experimental: Methods: Aliquots of a 10 μg/mL solution of Compound 1.3 in potassium phosphate buffers at pH 3 and 7 (room temperature) were sampled hourly for 12 hours. Samples were analyzed by reverse phase HPLC with use of a Beckman Ultrasphere C8 column (4.6×250 mm). The column was equilibrated and eluted with a gradient from 50 mM sodium phosphate pH 5.5 to 80% acetonitrile at a flow rate of 1.0 mL/min. Detection was at 254 nm. Under these conditions, Compound 1.3 was separated from 2-Amino-5-isobutyl-4-[2-(5-phosphonomonoamide)furanyl]thiazole, and from 2-Amino-5-isobutyl-4-(2-furanyl)thiazole (retention times=17, 15.8, and 15.6 min., respectively).

[4] = target: T1, human recombinant CYP3A4 (Homo sapiens, UniProt P08684); experiment: Activation by recombinant CYP3A4 (Example F); format: in vitro ADME; conditions: microsomes from baculovirus-infected insect cells co-expressing CYP3A4 and cytochrome p450 reductase
T1 construct: purchased Panvera Corp., Madison, Wis; host or cells: baculovirus-infected insect cells (microsomes)
T1 sequence (P08684 2-503): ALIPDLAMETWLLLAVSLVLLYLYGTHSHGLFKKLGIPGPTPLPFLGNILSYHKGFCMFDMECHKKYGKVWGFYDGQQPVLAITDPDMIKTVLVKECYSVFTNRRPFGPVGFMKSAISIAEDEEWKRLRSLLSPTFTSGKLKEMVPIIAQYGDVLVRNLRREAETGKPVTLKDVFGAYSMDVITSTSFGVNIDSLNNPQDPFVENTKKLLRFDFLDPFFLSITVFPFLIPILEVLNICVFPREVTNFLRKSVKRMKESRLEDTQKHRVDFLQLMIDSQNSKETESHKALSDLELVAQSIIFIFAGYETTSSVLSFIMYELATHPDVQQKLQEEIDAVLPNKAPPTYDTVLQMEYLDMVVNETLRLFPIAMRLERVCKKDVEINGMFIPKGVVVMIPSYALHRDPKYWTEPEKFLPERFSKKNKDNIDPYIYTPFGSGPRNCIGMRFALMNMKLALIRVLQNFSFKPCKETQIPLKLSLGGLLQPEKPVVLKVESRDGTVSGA
Experimental: Activation of 1.3 was evaluated in reactions containing microsomes from baculovirus-infected insect cells co-expressing human recombinant CYP3A4 and cytochrome p450 reductase (Panvera Corp., Madison, Wis.).
Methods: Reaction mixture composition was similar to that described in Example D. Reactions were terminated by addition of methanol to a final concentration of 60% and products were analyzed by HPLC as described in Example A.

[5] = target: T2, FBPase (Homo sapiens, UniProt P09467); experiment: FBPase inhibition in vitro; format: biochemical
T2 sequence (P09467 1-338): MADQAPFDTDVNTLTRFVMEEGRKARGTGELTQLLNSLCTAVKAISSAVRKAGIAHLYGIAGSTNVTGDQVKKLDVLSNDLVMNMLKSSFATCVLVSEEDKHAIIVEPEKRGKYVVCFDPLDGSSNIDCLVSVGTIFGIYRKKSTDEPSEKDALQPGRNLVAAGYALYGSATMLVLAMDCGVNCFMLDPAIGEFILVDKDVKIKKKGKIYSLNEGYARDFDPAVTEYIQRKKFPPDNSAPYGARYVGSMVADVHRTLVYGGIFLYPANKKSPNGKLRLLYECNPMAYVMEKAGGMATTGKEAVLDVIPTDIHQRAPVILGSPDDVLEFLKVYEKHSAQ

[6] = test system: hepatocytes isolated from rats in which CYP3A4 expression was induced; experiment: Activation in hepatocytes from dexamethasone-induced rats (Example J); format: cell-based, rat; conditions: two hours of incubation
Experimental: Methods: Hepatocytes were prepared from fed, dexamethasone-induced Sprague-Dawley rats (300 g) according to the procedure of Berry and Friend (Berry, M. N., Friend, D. S. J. Cell Biol. 43, 506-520 (1969)) as modified by Groen (Groen, A. K. et al. Eur J. Biochem 122, 87-93 (1982)). Hepatocytes (62 mg wet weight/ml) were incubated in 2 ml Krebs bicarbonate buffer containing 10 mM glucose, and 1 mg/ml BSA. Incubations were carried out in a 95% oxygen, 5% carbon dioxide atmosphere in closed, 50-ml Falcon tubes submerged in a rapidly shaking water bath (37° C.). 3.1 and 3.2 were dissolved in methanol to yield 25 mM stock solutions, and then diluted into the cell suspension to yield a final concentration of 250 μM. Two hours following administration, aliquots of the cell suspension were removed and spun through a silicon/mineral oil layer into 10% perchloric acid. The cell extracts in the acid layers were neutralized by the addition of 0.3 volumes of 3M KOH/3M KHCO3, and the extract was then centrifuged, filtered (0.2 micron) and loaded onto an anion exchange HPLC column equilibrated with 70% A (10 mM ammonium phosphate pH 3.5, 6% ETOH) and 30% B (1 M ammonium phosphate pH 3.5, 6% ETOH). […] Detection was by uv absorbance at 254 nm. Peak areas were quantified by comparison of peak areas to authentic standards spiked into naive hepatocyte extracts. […]

[7] = test system: rat hepatocytes; experiment: Activation in isolated rat hepatocytes, intracellular triphosphate generation (Examples G, H); format: cell-based; conditions: 250 μM, two hours of incubation
Experimental: Methods: Hepatocytes were prepared from fed, dexamethasone-induced Sprague-Dawley rats (300 g) according to the procedure of Berry and Friend (Berry, M. N., Friend, D. S. J. Cell Biol. 43, 506-520 (1969)) as modified by Groen (Groen, A. K. et al. Eur J. Biochem 122, 87-93 (1982)). Hepatocytes (62 mg wet weight/ml) were incubated in 2 ml Krebs bicarbonate buffer containing 10 mM glucose, and 1 mg/ml BSA. Incubations were carried out in a 95% oxygen, 5% carbon dioxide atmosphere in closed, 50-ml Falcon tubes submerged in a rapidly shaking water bath (37° C.). 3.1 and 3.2 were dissolved in methanol to yield 25 mM stock solutions, and then diluted into the cell suspension to yield a final concentration of 250 μM. Two hours following administration, aliquots of the cell suspension were removed and spun through a silicon/mineral oil layer into 10% perchloric acid. […] Detection was by uv absorbance at 254 nm. Peak areas were quantified by comparison of peak areas to authentic standards spiked into naive hepatocyte extracts.
Methods: 3.2 and acyclovir were evaluated in isolated rat hepatocytes at 250 μM as described in Example G.

[8] = test system: P450 isozymes (CYP3A4, CYP1A2, CYP2C9) in human microsomal protein; conditions: 0-100 μM inhibitor, 250 μM prodrug, 37° C.
Experimental: Prodrugs are evaluated for human microsome-catalyzed conversion to MPO2—(NHR^6−) in the absence and presence of specific inhibitors of three major P450 isozymes: ketoconazole (CYP3A4), furafylline (CYP1A2), and sulfaphenazole CYP2C9).
Methods: Reactions (0.5 ml @37° C.) consist of 0.2 M KH2PO4, 13 mM glucose-6-phosphate, 2.2 mM NADP+, 1 unit of glucose-6-phosphate dehydrogenase, 0-2.5 mg/ml human microsomal protein (In Vitro Technologies, Inc.), 250 μM prodrug, and 0-100 μM P450 isozyme inhibitor. Reactions are stopped by addition of methanol to a concentration of 60%, and filtered ([…] filter). MPO2—(NHR^6−) is quantified by standard reverse phase, ion-pairing, or ion exchange HPLC methods. Eluted peaks are quantified relative to authentic standards of known concentration.

[9] = test system: rat embryos in culture; conditions: cited from earlier work

CC(C)Cc1sc(N)nc1-c1ccco1 [2-Amino-5-isobutyl-4-(2-furanyl)thiazole]
IC50 ([1]; Rattus norvegicus, Hepatocyte): 2.5 µM

CC(=O)Nc1ccc(O)cc1 [Acetaminophen]
reduction of hepatic glutathione ([2]; 50, 250 and 500 mg/kg): dose-dependent reduction | depletion of hepatic glutathione ([2]; highest dose): > 80%

CC(C)Cc1sc(N)nc1-c1ccc(P2(=O)NCCC(c3ccccc3)O2)o1 (centres unmarked) [Compound 1.3, 2-Amino-5-isobutyl-4-{2-[5-(1-phenyl-1,3-propyl)phosphoramido]furanyl}thiazole]
stability [3]: fully stable | rate of generation of 2-Amino-5-isobutyl-4-[2-(5-phosphonomonoamide)furanyl]thiazole [4]: 4.2 nmoles/min./nmole CYP3A4 | IC50 [1]: 8.5 µM | lower potency relative to 2-Amino-5-isobutyl-4-(2-furanyl)thiazole ([1]; ratio of IC50's for glucose production): ~3 fold | inhibition of FBPase in vitro [5]: not an inhibitor

CSc1sc(N)nc1-c1ccc(P2(=O)OC(c3ccccc3)CCN2C)o1 (centres unmarked) [Compound 1.7, 2-Amino-5-methylthio-4-{2-[5-(N-methyl-1-phenyl-1,3-propyl)phosphoramido]furanyl}thiazole]
levels of 2-Amino-5-methylthio-4-[2-(5 phosphono)furanyl]thiazole formed [6]: 20.5 ± 3 nmol/g

Nc1ncnc2c1ncn2[C@@H]1O[C@H](COP2(=O)NC(c3ccccc3)CCO2)[C@@H](O)[C@@H]1O (stereo partly drawn) [Compound 3.1, 5′-O-(2-oxo-4-Phenyl-1,3,2-oxazaphosphorin-2-yl)-9-β-D-arabinofuranosyl-adenine]
Intracellular concentration of nucleoside triphosphate (AraATP from 3.1, acyclovir-triphosphate from 3.2) [7]: 15.7 ± 16 nmol/g

CC(=O)N1CCN(c2ccc(OCC3COC(Cn4ccnc4)(c4ccc(Cl)cc4Cl)O3)cc2)CC1 (centres unmarked) [Ketoconazole]
inhibition of formation of MPO2—(NHR^6−) from prodrug [8]: inhibits the formation of MPO2—(NHR^6−) in a dose-dependent fashion

C=CC(=O)c1ccccc1 [Phenyl vinyl ketone]
teratogenic activity [9]: lacks teratogenic activity

Cc1nc2c([nH]1)c(=O)n(C)c(=O)n2Cc1ccco1 [furafylline]
inhibition of formation of MPO2—(NHR^6−) from prodrug [8]: no significant inhibition

Nc1ccc(S(=O)(=O)Nc2ccnn2-c2ccccc2)cc1 [sulfaphenazole]
inhibition of formation of MPO2—(NHR^6−) from prodrug [8]: no significant inhibition
